The source of these data is patent publication US4335249A, “Herbicidal diphenyl ethers, sulfides, sulfoxides and sulfones” (Rohm and Haas Company, priority 1976, dated 1982).

Type in all cases: in vivo
Assay [1] relates to cocklebur (Xanthium pensylvanicum). The experiment in a line: Preemergence herbicidal activity, cocklebur. The settings on record: 2 lb/A; for pest or weed control at 2241.7 g/ha: Xanthium strumarium, pre-emergence, 336 h; for % control, Cocklebur: Pre. How it is done:
(§1) Using the procedure described below, compounds of the invention are evaluated for control of several of the following plant species:
(§2) The following est procedure is employed. Seeds of selected crops and weeds are planted in soil in flats. For preemergence tests, the flats are treated with the test compound immediately after the planting. For postemergence tests, the seeds are allowed to germinate, and after two weeks the flats are treated with the test compound. The compound to be evaluated is dissolved in acetone, diluted with water, and sprayed over the flats using a carrier volume equivalent to 50 gallons per acre at the rate of application (pounds per acre, lb/A.) specified in the tables. About two weeks after the application of the test compound, the state of growth of the plants is observed and the phytotoxic effect of the compound is evaluated. Tables III and IV give the average percent control achieved by test compounds in terms of the percent of the plants which are killed by the compounds.

Assay [2] concerns velvetleaf (Abutilon theophrasti). Description: Preemergence herbicidal activity, velvetleaf. The settings on record: Pre, 2 lb/A; for pest or weed control at 2241.7 g/ha: Abutilon theophrasti, pre-emergence, 336 h. How it is done: as §1, §2
The test system of assay [3] is morningglory (Ipomoca spp.). Description: Postemergence herbicidal activity, morningglory. The settings on record: 2 lb/A; for pest or weed control at 2241.7 g/ha: Ipomoea, post-emergence, 336 h; for % control, Morningglory: Post. As to the method: as §1, §2
Assay [4] concerns marigold (Tagetes spp.). The experiment in a line: Postemergence herbicidal activity, marigold. The settings on record: 2 lb/A; for pest or weed control at 2241.7 g/ha: post-emergence, 336 h; for % control, Marigold: Post. As to the method:
as §1, §2

Assay [5] has as its system tomato (Lycopersicon esculentum). The experiment in a line: Postemergence herbicidal activity, tomato. Conditions: Post, 2 lb/A; for pest or weed control at 2241.7 g/ha: Solanum lycopersicum, post-emergence, 336 h. As to the method:
as §1, §2

The test system of assay [6] is foxtail (Setaria spp.). Description: Preemergence herbicidal activity, foxtail. Conditions: Pre, 2 lb/A; for pest or weed control at 2241.7 g/ha: Setaria, pre-emergence, 336 h. As to the method: as §1, §2
Assay [7] concerns downybrome (Bromus tectorum). Description: Preemergence herbicidal activity, downybrome. The settings on record: Pre, 2 lb/A; for pest or weed control at 2241.7 g/ha: Bromus tectorum, pre-emergence, 336 h. As to the method: as §1, §2
Assay [8] relates to barnyardgrass (Echinochloa crusgalli). The experiment in a line: Postemergence herbicidal activity, barnyardgrass. Conditions: Post, 2 lb/A; for pest or weed control at 2241.7 g/ha: Echinochloa crus-galli, post-emergence, 336 h. How it is done:
as §1
(§3) The following est procedure is employed. Seeds of selected crops and weeds are planted in soil in flats. For preemergence tests, the flats are treated with the test compound immediately after the planting. For postemergence tests, the seeds are allowed to germinate, and after two weeks the flats are treated with the test compound. The compound to be evaluated is dissolved in acetone, diluted with water, and sprayed over the flats using a carrier volume equivalent to 50 gallons per acre at the rate of application (pounds per acre, lb/A.) specified in the tables.

Assay [9] deals with tomato (Lycopersicon esculentum). Description: Preemergence herbicidal activity, tomato. The settings on record: Pre, 2 lb/A; for pest or weed control at 2241.7 g/ha: Solanum lycopersicum, pre-emergence, 336 h. As to the method: as §1, §2
Assay [10] deals with downybrome (Bromus tectorum). The experiment in a line: Postemergence herbicidal activity, downybrome. Conditions: Post, 2 lb/A; for pest or weed control at 2241.7 g/ha: Bromus tectorum, post-emergence, 336 h. As to the method:
as §1, §2

Assay [11] deals with morningglory (Ipomoca spp.). The experiment in a line: Preemergence herbicidal activity, morningglory. The settings on record: 2 lb/A; for pest or weed control at 2241.7 g/ha: Ipomoea, pre-emergence, 336 h; for % control, Morningglory: Pre. As to the method: as §1, §2
Assay [12] relates to wild oats (Avena fatua). Description: Postemergence herbicidal activity, wild oats. Conditions: Post, 2 lb/A; for pest or weed control at 2241.7 g/ha: Avena fatua, post-emergence, 336 h, read-out: % control, Wild oat. As to the method: as §1, §2
The subject of assay [13] is cocklebur (Xanthium pensylvanicum). Description: Postemergence herbicidal activity, cocklebur. Conditions: 2 lb/A; for pest or weed control at 2241.7 g/ha: Xanthium strumarium, post-emergence, 336 h; for % control, Cocklebur: Post. As to the method: as §1, §2
Assay [14] relates to velvetleaf (Abutilon theophrasti). The experiment in a line: Postemergence herbicidal activity, velvetleaf. The settings on record: 2 lb/A; for pest or weed control at 2241.7 g/ha: Abutilon theophrasti, post-emergence, 336 h; for % control, Velvetleaf: Post. As to the method: as §1, §3
Assay [15] relates to foxtail (Setaria spp.). Description: Postemergence herbicidal activity, foxtail. The settings on record: Post, 2 lb/A; for pest or weed control at 2241.7 g/ha: Setaria, post-emergence, 336 h. As to the method: as §1, §2
Assay [16] relates to marigold (Tagetes spp.). Description: Preemergence herbicidal activity, marigold. The settings on record: 2 lb/A; for pest or weed control at 2241.7 g/ha: pre-emergence, 336 h; for % control, Marigold: Pre. How it is done:
as §1, §2

For assay [17], the system named is yellow nutsedge (Cyperus esculentus). The experiment in a line: Preemergence herbicidal activity, yellow nutsedge. The settings on record: 2 lb/A; for pest or weed control at 2241.7 g/ha: Cyperus, pre-emergence, 336 h; for % control, Nutsedge: Pre. How it is done: as §1, §2
The test system is the same in assay [18]. Description: Postemergence herbicidal activity, yellow nutsedge. The settings on record: 2 lb/A; for pest or weed control at 2241.7 g/ha: Cyperus, post-emergence, 336 h; for % control, Nutsedge: Post. As to the method: as §1, §2
For assay [19], the system named is wild oats (Avena fatua). Description: Preemergence herbicidal activity, wild oats. The settings on record: Pre, 2 lb/A; for pest or weed control at 2241.7 g/ha: Avena fatua, pre-emergence, 336 h, read-out: % control, Wild oat. As to the method: as §1, §2
Assay [20] has as its system barnyardgrass (Echinochloa crusgalli). Description: Preemergence herbicidal activity, barnyardgrass. Conditions: Pre, 2 lb/A; for pest or weed control at 2241.7 g/ha: Echinochloa crus-galli, pre-emergence, 336 h. As to the method:
as §1, §3

The structures appear in SMILES notation.

Take `CC(Oc1ccc(Oc2ccc(C(F)(F)F)cc2)cc1)C(N)=O` (stereo not drawn) [Example 40, 2-[4-(4-trifluoromethylphenoxy)phenoxy] propanamide]: the pest or weed control at 2241.7 g/ha amounted to 0% in assay [1]; 0% in assay [2]; 0% in assay [3]; 0% in [4]; 0% in assay [5]; 100% in assay [6]. The pest or weed control at 2241.7 g/ha turned out to be 80% in assay [7]; 99% in [8]; 0% in assay [9]; 40% in assay [10]; 0% in assay [11]; 95% in assay [12]. For the same compound, the pest or weed control at 2241.7 g/ha turned out to be 20% in assay [13]; 0% in [14]; 95% in assay [15]; 0% in [16]; 0% in assay [17]; 0% in [18]. Moreover, the pest or weed control at 2241.7 g/ha in assay [19] turned out to be 60%; in assay [20], 99%.
For `CC(Oc1ccc(Oc2ccc(C(F)(F)F)cc2Cl)cc1)C(=O)O` (stereo not drawn) [Example 17], the “% control, Cocklebur” value in assay [1] and in [13] was 0% throughout. Also, the “% control, Velvetleaf” value in assay [2] and in [14] was 0% throughout. The “% control, Morningglory” value in [3] and in assay [11] was 0% each time. In addition, the “% control, Marigold” value in assay [4] and in assay [16] was 0% each time. The “% control, Tomato” value in assay [5] and in assay [9] was 0% throughout. The results for the “% control, Foxtail” value in assay [6] and in [15] were 100% and 90%, respectively. Also, the “% control, Downybrome” value in assay [7] came out at 30%; in assay [10], 0%. The “% control, Barnyardgrass” value in assay [8] is 99%; in [20], 100%. Moreover, the “% control, Wild oat” value in [12] is recorded as 80%; in [19], 95%. Further, the “% control, Nutsedge” value in [17] and in [18] was 0% each time.
In the case of `CC(C)COC(=O)C(C)Oc1ccc(Oc2ccc(C(F)(F)F)cc2Cl)cc1` (stereo not drawn) [Example 33], the pest or weed control at 2241.7 g/ha in assay [1] was found to be 0%; in assay [2] it was 0%; in [3], 0%; in assay [4], 0%; in assay [5], 0%; in [6] it was 100%. In addition, the pest or weed control at 2241.7 g/ha turned out to be 90% in assay [7]; 100% in [8]; 0% in assay [9]; 100% in assay [10]; 0% in assay [11]; 100% in assay [12]. Further, the pest or weed control at 2241.7 g/ha in assay [13] is 0%; in assay [14], 0%; in assay [15], 100%; in assay [16], 0%; in assay [17], 0%; in assay [18] it was 0%. Further, the values for the pest or weed control at 2241.7 g/ha in assay [19] and in assay [20] were 90% and 99%, respectively.
In the case of `CCOC(=O)C(Oc1ccc(Oc2ccc(C(F)(F)F)cc2Cl)cc1)C(C)C` (stereo not drawn) [Example 28], the pest or weed control at 2241.7 g/ha in assay [1] turned out to be 0%; in [2], 0%; in assay [3] it was 0%; in assay [4], 0%; in assay [5] it was 0%; in assay [6], 90%. Further, the pest or weed control at 2241.7 g/ha in assay [7] stood at 30%; in [8] it was 60%; in assay [9], 0%; in assay [10] it was 20%; in [11], 70%; in assay [12], 60%. For the same compound, the pest or weed control at 2241.7 g/ha in [13] was determined as 0%; in [14], 0%; in [15], 99%; in [16], 0%; in assay [17] it was 0%; in assay [18], 0%. Further, the pest or weed control at 2241.7 g/ha in [19] stood at 0%; in assay [20], 95%.
For `CCOC(=O)C(C)Oc1ccc(Oc2ccc(C(F)(F)F)cc2Cl)cc1Cl` (stereo not drawn) [Example 7], the pest or weed control at 2241.7 g/ha in assay [1] amounted to 0%; in assay [2] it was 0%; in [3], 100%; in assay [4], 20%; in [5], 80%; in [6], 90%. Besides, the pest or weed control at 2241.7 g/ha in [7] is 0%; in [8], 10%; in assay [9], 0%; in assay [10], 0%; in assay [11] it was 0%; in assay [12] it was 20%. The pest or weed control at 2241.7 g/ha in assay [13] amounted to 80%; in assay [14], 80%; in assay [15], 40%; in [16], 0%; in assay [17], 0%; in assay [18] it was 0%. For the same compound, the pest or weed control at 2241.7 g/ha in assay [19] and in assay [20] was 0% each time.
Regarding `CC(Oc1ccc(Oc2ccc(C(F)(F)F)cc2Cl)cc1)C(=O)O` (stereo not drawn) [Example 16], the “% control, Cocklebur” value in assay [1] and in assay [13] was 0% throughout. The “% control, Velvetleaf” value in assay [2] and in assay [14] was 0% each time. The “% control, Morningglory” value in assay [3] and in assay [11] was 0% throughout. Besides, the “% control, Marigold” value in [4] and in assay [16] was 0% in each case. Also, the “% control, Tomato” value in [5] and in assay [9] was 0% each time. Also, the “% control, Foxtail” value in assay [6] is recorded as 100%; in assay [15] it was 90%. In addition, the figures for the “% control, Downybrome” value in [7] and in assay [10] were 70% and 0%, respectively. Also, the “% control, Barnyardgrass” value in [8] and in assay [20] was 100% throughout. Also, the entries for the “% control, Wild oat” value in assay [12] and in assay [19] were 80% and 70%, respectively. Besides, the “% control, Nutsedge” value in assay [17] and in assay [18] was 0% in each case.
